Consider eight molecules from PubChem BioAssay (NCI).

Some test systems named below: RPMI-8226 leukemia; EKVX NSCLC; UO-31 renal; HCT-15 colon; HCC-2998 colon; K-562 leukemia; OVCAR-3 ovarian; DU-145 prostate; OVCAR-8 ovarian; HL-60(TB) leukemia.
Experiment in all cases: growth of human tumour cells (NCI), 48 h

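Growth conditions: 96-well plates. Treatment: test compound, 48 hours, 5 concentrations. Analysis: linear interpolation between bracketing concentrations; unreached endpoints set to highest concentration. At the GI50, growth is halved. TGI marks complete inhibition of growth.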

Regarding `Cc1nnc(Nc2ccc(NC(=O)Nc3ccc(Cl)cc3)cc2)c2ccccc12`, the GI50 in the experiment on RPMI-8226 leukemia is 2.6 µM; with EKVX NSCLC, 3.47 µM; in the experiment on UO-31 renal, 2.14 µM; with HCT-15 colon it was 1.91 µM; with HCC-2998 colon, 2.84 µM; with K-562 leukemia it was 2.2 µM. Besides, the GI50 was 1.87 µM in the experiment with OVCAR-3 ovarian, 4.77 µM in the experiment with DU-145 prostate, 3.35 µM in the experiment with OVCAR-8 ovarian and 2.03 µM in the experiment on HL-60(TB) leukemia. Moreover, the TGI turned out to be 6.48 µM in the experiment on RPMI-8226 leukemia; 17.9 µM in the experiment on EKVX NSCLC; 6.01 µM in the experiment on UO-31 renal; 4.53 µM in the experiment with HCT-15 colon; 8.09 µM in the experiment on HCC-2998 colon; 4.67 µM in the experiment on K-562 leukemia. Further, the TGI in the experiment with OVCAR-3 ovarian was 3.99 µM; in the experiment with DU-145 prostate, 19.5 µM; in the experiment on OVCAR-8 ovarian, 9.32 µM; in the experiment on HL-60(TB) leukemia, 4.19 µM.

As to `O=C(NC[C@H](O)CN1CCc2ccccc2C1)c1cc(NC2COC2)ncn1`, the GI50 in the experiment on RPMI-8226 leukemia was 4.22 µM; in the experiment on EKVX NSCLC, 24.8 µM; in the experiment with UO-31 renal, 11.8 µM; in the experiment with HCT-15 colon, 22.7 µM; in the experiment with HCC-2998 colon, 15.4 µM; in the experiment with K-562 leukemia, 20.3 µM. Besides, the GI50 is 10.8 µM in the experiment with OVCAR-3 ovarian, 18.3 µM in the experiment with DU-145 prostate, 20.8 µM in the experiment on OVCAR-8 ovarian and 20.3 µM with HL-60(TB) leukemia. Further, the TGI with RPMI-8226 leukemia was 43.5 µM; in the experiment on EKVX NSCLC, above 100 µM; with UO-31 renal, 97.1 µM; with HCT-15 colon, above 100 µM; in the experiment with HCC-2998 colon, 29.8 µM; in the experiment with K-562 leukemia, above 100 µM. Moreover, the TGI in the experiment on OVCAR-3 ovarian is 49.1 µM; in the experiment on DU-145 prostate it was above 100 µM; in the experiment on OVCAR-8 ovarian, above 100 µM; in the experiment with HL-60(TB) leukemia, 60.5 µM.

For `O=C(Nc1ccc(Br)cc1F)c1cc(Cl)ccc1O`, the GI50 was 0.342 µM with RPMI-8226 leukemia; 1.12 µM in the experiment on EKVX NSCLC; 0.207 µM in the experiment on UO-31 renal; 0.972 µM in the experiment with HCT-15 colon; 2.79 µM in the experiment with HCC-2998 colon; 0.489 µM in the experiment on K-562 leukemia. The GI50 was 0.476 µM with OVCAR-3 ovarian, 0.899 µM with DU-145 prostate, 1.06 µM in the experiment with OVCAR-8 ovarian and 0.481 µM in the experiment with HL-60(TB) leukemia. The TGI in the experiment on RPMI-8226 leukemia is 1.88 µM; in the experiment on EKVX NSCLC it was above 26.2 µM; in the experiment with UO-31 renal, 2.36 µM; in the experiment with HCT-15 colon, 10.5 µM; in the experiment on HCC-2998 colon, 12.7 µM; in the experiment with K-562 leukemia, above 50.7 µM. Also, the TGI is above 26.6 µM in the experiment on OVCAR-3 ovarian, above 100 µM in the experiment with DU-145 prostate, 12.8 µM in the experiment with OVCAR-8 ovarian and 3.19 µM in the experiment with HL-60(TB) leukemia.

With `Cc1nc(N)sc1N=Nc1ccccc1Br`, the TGI is above 100 µM in the experiment on RPMI-8226 leukemia; 76.3 µM in the experiment on EKVX NSCLC; 60.5 µM in the experiment with UO-31 renal; 69.8 µM in the experiment with HCT-15 colon; 21.7 µM with HCC-2998 colon; above 100 µM with K-562 leukemia. Moreover, the TGI with OVCAR-3 ovarian is above 79.9 µM; in the experiment with DU-145 prostate, 58.5 µM; in the experiment with OVCAR-8 ovarian it was above 84.8 µM; in the experiment on HL-60(TB) leukemia, above 75.9 µM.

For the molecule `CC1CC2CCCC(O)=C2C(=O)O1` (stereo not given), the TGI with RPMI-8226 leukemia, in the experiment on EKVX NSCLC, in the experiment with UO-31 renal, with HCT-15 colon, in the experiment with HCC-2998 colon and with K-562 leukemia was above 100 µM in each case. For the same molecule, the TGI in the experiment with OVCAR-3 ovarian, in the experiment on DU-145 prostate, in the experiment on OVCAR-8 ovarian and in the experiment on HL-60(TB) leukemia was above 100 µM each time.

Take `CC1(C)OC2C(CO[Si](C)(C)C(C)(C)C)OC(n3c(I)c(C#C[Si](C)(C)C)c(=O)[nH]c3=O)C2O1` (stereo not given): the GI50 in the experiment with RPMI-8226 leukemia was 2.4 µM; in the experiment on EKVX NSCLC, 59.6 µM; in the experiment on UO-31 renal, 2.63 µM; in the experiment on HCT-15 colon, 2.39 µM; in the experiment on HCC-2998 colon it was 4.52 µM; in the experiment with K-562 leukemia, 1.61 µM. For the same molecule, the GI50 in the experiment with OVCAR-3 ovarian was 1.81 µM; in the experiment on DU-145 prostate, 13 µM; in the experiment with OVCAR-8 ovarian, 12.5 µM; with HL-60(TB) leukemia, 2.35 µM. Further, the TGI in the experiment with RPMI-8226 leukemia is 8.6 µM; with EKVX NSCLC it was above 100 µM; in the experiment with UO-31 renal, 10.4 µM; in the experiment with HCT-15 colon it was 15.4 µM; in the experiment on HCC-2998 colon it was 17.7 µM; with K-562 leukemia, 3.89 µM. The TGI came to 3.54 µM in the experiment with OVCAR-3 ovarian, 25.6 µM in the experiment on DU-145 prostate, 45.8 µM in the experiment on OVCAR-8 ovarian and 15.2 µM with HL-60(TB) leukemia.

For `Nc1ncn([C@@H]2O[C@H](CO)[C@@H](O)[C@H]2O)c(=O)n1`, the GI50 in the experiment on RPMI-8226 leukemia is 0.669 µM; in the experiment on EKVX NSCLC it was 8.49 µM; with UO-31 renal it was 1.1 µM; with HCT-15 colon it was 1.6 µM; in the experiment on HCC-2998 colon, 0.636 µM; with K-562 leukemia, 0.572 µM. The GI50 is 1.56 µM in the experiment with OVCAR-3 ovarian, 0.775 µM in the experiment with DU-145 prostate, 0.766 µM in the experiment on OVCAR-8 ovarian and 0.699 µM in the experiment with HL-60(TB) leukemia. In addition, the TGI was above 100 µM with RPMI-8226 leukemia; above 100 µM in the experiment on EKVX NSCLC; 9.97 µM with UO-31 renal; 21.1 µM with HCT-15 colon; 5.55 µM with HCC-2998 colon; above 100 µM in the experiment with K-562 leukemia. Moreover, the TGI is 3.69 µM in the experiment with OVCAR-3 ovarian, 9.34 µM in the experiment with DU-145 prostate, above 100 µM in the experiment with OVCAR-8 ovarian and 4.91 µM in the experiment on HL-60(TB) leukemia.

Take `COc1cc(N=Nc2ccc(O)c3ncccc23)c2ncccc2c1`: the GI50 is 2.97 µM with RPMI-8226 leukemia; 4.08 µM in the experiment with EKVX NSCLC; 2.56 µM in the experiment with UO-31 renal; 0.923 µM with HCT-15 colon; 3.65 µM in the experiment on HCC-2998 colon; 3.44 µM with K-562 leukemia. For the same molecule, the GI50 in the experiment on OVCAR-3 ovarian is 4.58 µM; in the experiment on DU-145 prostate, 4.06 µM; with OVCAR-8 ovarian it was 3.73 µM; with HL-60(TB) leukemia it was 2.47 µM. Also, the TGI with RPMI-8226 leukemia was above 100 µM; with EKVX NSCLC it was above 100 µM; in the experiment with UO-31 renal, 25.3 µM; in the experiment on HCT-15 colon, above 100 µM; with HCC-2998 colon, above 100 µM; in the experiment with K-562 leukemia, above 100 µM. The TGI with OVCAR-3 ovarian is above 100 µM; with DU-145 prostate, above 100 µM; with OVCAR-8 ovarian, above 100 µM; with HL-60(TB) leukemia it was 9.16 µM.
